Experiments:
Assay in all cases: relative viability (nuclei count vs DMSO), 5 days (fraction); higher = more cells survive
Docetaxel = compound: CC(=O)O[C@@]12CO[C@@H]1C[C@H](O)[C@@]1(C)C(=O)[C@H](O)C3=C(C)[C@@H](OC(=O)[C@H](O)[C@@H](NC(=O)OC(C)(C)C)c4ccccc4)C[C@@](O)([C@@H](OC(=O)c4ccccc4)[C@H]21)C3(C)C [Docetaxel]
Procedure, shortened: (§1)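 MetaXpress counted nuclei in 4× images of lung cancer cell lines that had been fixed, permeabilised and Hoechst-stained in one step. Before that, cells in 1536-well plates were kept overnight at 37 °C, pinned with five √10-spaced library-drug doses on vehicle-anchored plates, and cultured 5 days without medium change. Viability takes treated-well nuclei over vehicle-well nuclei and uses the median across plates. Plates were accepted only at control CV below 25% and at least one doubling.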

Tivozanib = compound: COc1cc2nccc(Oc3ccc(NC(=O)Nc4cc(C)on4)c(Cl)c3)c2cc1OC [Tivozanib]
Procedure, shortened: as §1

[1] = compound: Cc1cnc(-c2cnc(NCCNc3ccc(C#N)cn3)nc2-c2ccc(Cl)cc2Cl)[nH]1
Procedure, shortened: as §1

JQ1 = compound: Cc1sc2c(c1C)C(c1ccc(Cl)cc1)=N[C@@H](CC(=O)OC(C)(C)C)c1nnc(C)n1-2 [JQ1]
Procedure, shortened: as §1

Cytarabine = compound: Nc1ccn([C@@H]2O[C@H](CO)[C@@H](O)[C@@H]2O)c(=O)n1 [Cytarabine]
Procedure, shortened: as §1

CPI-613 = compound: O=C(O)CCCCC(CCSCc1ccccc1)SCc1ccccc1 [CPI-613]
Procedure, shortened: as §1

Pimozide = compound: O=c1[nH]c2ccccc2n1C1CCN(CCCC(c2ccc(F)cc2)c2ccc(F)cc2)CC1 [Pimozide]
Procedure, shortened: as §1

Row | Cell Line | relative viability (Docetaxel; 0.0002 µM) | relative viability (Docetaxel; 0.000632 µM) | relative viability (Docetaxel; 0.002 µM) | relative viability (Docetaxel; 0.006325 µM) | relative viability (Docetaxel; 0.02 µM) | relative viability (Tivozanib; 0.005 µM) | relative viability (Tivozanib; 0.01581 µM) | relative viability (Tivozanib; 0.05 µM) | relative viability (Tivozanib; 0.1581 µM) | relative viability (Tivozanib; 0.5 µM) | relative viability ([1]; 0.08 µM) | relative viability ([1]; 0.253 µM) | relative viability ([1]; 0.8 µM) | relative viability ([1]; 2.53 µM) | relative viability (JQ1; 0.04 µM) | relative viability (JQ1; 0.1265 µM) | relative viability (JQ1; 0.4 µM) | relative viability (JQ1; 1.265 µM) | relative viability (JQ1; 4 µM) | relative viability (Cytarabine; 0.005 µM) | relative viability (Cytarabine; 0.01581 µM) | relative viability (Cytarabine; 0.05 µM) | relative viability (Cytarabine; 0.1581 µM) | relative viability (Cytarabine; 0.5 µM) | relative viability (CPI-613; 5 µM) | relative viability (CPI-613; 15.81 µM) | relative viability (CPI-613; 50 µM) | relative viability (CPI-613; 158.11 µM) | relative viability (CPI-613; 500 µM) | relative viability (Pimozide; 0.08 µM) | relative viability (Pimozide; 0.253 µM) | relative viability (Pimozide; 0.8 µM) | relative viability (Pimozide; 2.53 µM) | relative viability (Pimozide; 8 µM)
1 | SK-MES-1 | 1 | 0.872 | 0.418 | 0.267 | 0.172 | 0.997 | 0.993 | 1.02 | 1 | 0.959 | 1.09 | 0.947 | 1.02 | 1.1 | 0.937 | 0.717 | 0.603 | 0.311 | 0.25 | 0.875 | 0.712 | 0.355 | 0.258 | 0.221 | 0.967 | 0.904 | 0.98 | 0.531 | 0.477 | 0.942 | 0.998 | 0.979 | 1.01 | 0.985
2 | SW 900 | 0.69 | 0.422 | 0.292 | 0.232 | 0.174 | 0.894 | 0.855 | 0.844 | 0.4 | 0.791 | 0.902 | 0.803 | 0.759 | 0.729 | 0.87 | 0.766 | 0.557 | 0.26 | 0.209 | 0.725 | 0.674 | 0.564 | 0.26 | 0.204 | 0.837 | 0.642 | 1.02 | 0.601 | 0.0301 | 0.916 | 0.84 | 0.468 | 0.811 | 0.742
3 | SW 1573 | 0.872 | 0.485 | 0.252 | 0.205 | 0.152 | 0.969 | 0.914 | 1.01 | 0.903 | 0.829 | 1.1 | 0.999 | 0.997 | 0.6 | 0.869 | 0.791 | 0.637 | 0.365 | 0.345 | 0.969 | 0.87 | 0.725 | 0.38 | 0.157 | 0.917 | 0.851 | 0.958 | 0.482 | 0.314 | 0.923 | 1.02 | 0.945 | 0.82 | 0.637
4 | UMC-11 | 0.912 | 0.944 | 0.456 | 0.279 | 0.187 | 0.944 | 0.954 | 0.965 |  | 0.927 | 0.943 | 0.787 | 0.929 | 1.02 | 0.926 | 0.742 | 0.43 | 0.29 | 0.26 | 0.75 | 0.554 | 0.551 | 0.316 | 0.264 | 0.945 | 0.924 | 0.911 | 0.474 | 0.133 | 1.01 | 0.983 | 0.961 | 0.976 | 1.07

Source: the supplement of paper PMC10307832
